Residues, ends and D or L forms follow the SMILES beside them.
Tests used:
clinical HCMV isolates = assay: Infection assays with clinical isolates on HFF; type: cell-based, Human Cytomegalovirus
Method: The antiviral activity of HD5 (1-9) (SEQ ID No. 1) in concentrations from 1.56 μM to 100 μM against infection with clinical HCMV isolates was investigated on HFF. In addition to the laboratory-adapted strain TB40/E-ΔUL16-eGFP, which served as reference strain, a breast milk-derived strain, an amniotic fluid-isolated strain and a multidrug-resistant viral isolate from leukocytes of a recipient after the third stem cell transplantation were used. The therapy-naïve strain from cell free milk whey (H1241-2016) was derived from a […] of a preterm infant 10 weeks postpartum during end of viral reactivation. The amnion fluid derived virus strain (H2497-2011) was isolated following termination of pregnancy based on severe fetal brain damage. The multidrug resistant CMV isolate (H815-2006) is already described (Gohring et al., “Dynamics of coexisting HCMV-UL97 and UL54 drug-resistance associated mutations in patients after haematopoietic cell transplantation”, J. Clin. Virol. 57(1):43-49, 2013). […] All viral isolates were primarily HFF-adapted and propagated in vitro with at least 10 passages to get TCID values of cell free viral supernatants of […].
Next, a peptide of the invention, i.e. HD5 (1-9) was tested on clinical HCMV isolates. 10 000 HFF were seeded into each well of a 96-well-plate containing 200 μl of medium. Cells were incubated overnight at 37° C. and 5% CO2. Next day medium was changed to medium without P/S. Cells were infected with different clinical HCMV isolates (MOI 0,2) and treated with peptide in concentrations from 1.56 μM to 100 μM in a volume of 100 μl. After 40 h of incubation cells were fixed with 2% PFA in PBS and permeabilised with 90% methanol in H2O. Afterwards an antibody staining for IE-antigens was performed and nuclei were stained with DAPI. Infection rate was analysed (IE+/DAPI+, normalized to medium control, n=1).
HCMV TB40/E is a lab-adapted strain that might differ from primary HCMV isolates in terms of cellular tropism, infectivity or cytopathic properties. […]

HCMV TB40/E-ΔUL16-eGFP = assay: Infection assay on different cell types (HFF, ARPE-19, THP-1) with TB40E-ΔUL16-EGFP, IE+/DAPI+; type: cell-based, Human Cytomegalovirus; details: 40 h
Method: For the infection assays, the cells were sown in 96-well plates. Human foreskin fibroblasts (HFF) and ARPE-19 cells (Adult Retinal Pigment Epithelial cell line-19) were seeded with 10 000 cells in 200 μl medium per well, macrophages with 20 000 cells in 200 μl medium per well and THP with 50 000 cells in 200 μl per well. The cells were incubated overnight at 37° C. and 5% CO2 and treated the following day. A medium change to P/S-free medium was performed to avoid interaction between the antibiotics used and the peptide sequences. Afterwards the corresponding peptides were added in different concentrations and immediately afterwards the virus, the final volume was 100 μl per well. The virus of the strain TB40/E-ΔUL16-eGFP was used. TB40-ΔUL16-eGFP is a derivative of the strain TB40, in which the majority of the open reading frame UL16 has been replaced by the open reading frame of eGFP, essentially as described in detail for a homologous mutant of strain AD169 (Tischer et al., “Two-step red-mediated recombination for versatile high-efficiency markerless DNA manipulation in Escherichia coli”, Biotechniques, (2006), 40(2):191-7). […] The required volume of the virus stock was calculated using the titer according to the following formula: […]

## C[C@H](N)C(=O)N[C@H](C(=O)N[C@@H](CS)C(=O)N[C@@H](Cc1ccc(O)cc1)C(=O)N[C@@H](CS)C(=O)N[C@@H](CCCNC(=N)N)C(=O)N[C@H](C(=O)NCC(=O)N[C@@H](CCCNC(=N)N)C(=O)O)[C@@H](C)O)[C@@H](C)O [HD5 (1-9), ATCYCRTGR] (H-ATCYCRTGR-OH; N-terminus and C-terminus assumed)
Clinical HCMV isolates; 100 μM in HFF, MOI 0.2 and 0.1
  inhibition of HCMV infection: inhibited HCMV infection efficiently
Clinical HCMV isolates; HFF, 40 h
  concentration at which inhibition of infection with all clinical isolates starts: ≥ 50 µM
Clinical HCMV isolates; HFF, MOI 0.2 and 0.1
  inhibition of infection with primary isolates (amniotic fluid, breast milk, multiresistant leukocyte isolate): sensitive towards inhibition
HCMV TB40/E-ΔUL16-eGFP
  concentration from which HCMV infection is inhibited: ≥ 50 µM

From patent US20220213156A1, “Peptides for use in therapy or prophylaxis of Herpesviridae-infections” (priority 2019, published 2022)
